Results taken from publication PMC8765781, “A platform of assays for the discovery of anti-Zika small-molecules with activity in a 3D-bioprinted outer-blood-retina model” (PLoS ONE, 2022).
Like-named read-outs stand apart in the source and are kept apart here.

Key:
[1] = tested on: ZIKV-RLuc (Cambodian strain FSS13025); assay: microbe, parasite or virus in culture; type: cell-based, Zika virus; conditions: read-out: Rluc-ZIKV (ZIKV Antiviral Assays), IC50
[2] = tested on: Solute carrier organic anion transporter family member 1B1; conditions: cited from earlier work
[3] = tested on: wild-type ZIKV (Ugandan MR766 strain) in Vero cells; assay: ZIKV cytopathic effect (CPE) inhibition qHTS assay, CellTiter-Glo readout; type: cell-based, Zika virus; conditions: for IC50: read-out: ZIKV-infection (CPE, ZIKV Antiviral Assays), IC50
[4] = tested on: caspase-3 activity induced by ZIKV in Vero cells; assay: cells; type: cell-based; conditions: read-out: Caspase 3 (ZIKV Antiviral Assays), IC50
[5] = tested on: ZIKV-mCherry (Cambodian strain FSS13025); assay: microbe, parasite or virus in culture; type: cell-based, Zika virus
in vitro [6] = conditions: African green monkey
[7] = biological target: Tyrosine-protein phosphatase non-receptor type 1; conditions: cited from earlier work
in vitro [8] = conditions: human
[9] = tested on: DENV (Dengue virus type 2, strain New Guinea C)
[10] = tested on: human neuronal progenitor cells (NPC)
[11] = tested on: mCherry-ZIKV in human neuronal progenitor cells; assay: microbe, parasite or virus in culture; type: cell-based, Zika virus
[12] = tested on: Transcription factor AP-1; conditions: cited from earlier work
[13] = Zika virus, Vero, read-out: Log AC50 (M) (converted)

## CC1OC(OC2C(OC(=O)[C@]34CCC(C)(C)C[C@H]3C3=CCC5[C@@]6(C)CC[C@H](OC7OC(C(=O)O)C(O)C(O)C7O)C(C)(C)C6CC[C@@]5(C)[C@]3(C)CC4O)OC(CO)C2O)C(O)C(O)C1OC1OCC(O)C(O)C1O (some centres unmarked) [NCGC00381102-01]
[1]; Zika virus, Vero, 48 h
  IC50: 6.19 µM
[2]
  -Log(IC50) M, Solute carrier organic anion transporter family member 1B1: Solute carrier organic anion transporter family member 1B1 -Log(IC50) M~5.40~-Log(IC50) M~0.8333~Target
[3]
  CC-v2 (curve class classification of the dose response curve): -3
  Efficacy: -33.279
[3]; Zika virus, Vero
  AC50: 1.55e-05 M
[3]; Zika virus, Vero, 48 h
  IC50: 15.5 µM
[3]; [13]
  AC50: 1.55e-05 M
[4]; Zika virus, Vero, 48 h
  IC50: > 48 µM
[5]
  CC-v2 (curve class of the dose response curve): -1.4
  Efficacy (difference between neutral response and maximum compound response): -69.614
  Max Resp (difference between neutral response and response at highest compound concentration): -99.592
In vitro [6]; Vero cells
  CC50 at 48 h: > 50 µM

## CC1(C)CC[C@]2(C(=O)O)CC[C@]3(C)C(=CC[C@@H]4[C@@]5(C)CC[C@H](O[C@@H]6O[C@H](C(=O)O)[C@@H](O)[C@H](O)[C@H]6O)C(C)(C)[C@@H]5CC[C@]43C)[C@@H]2C1 [NCGC00384528-01, Calenduloside E]
[1]; Zika virus, Vero, 48 h
  IC50: 11 µM
[7]
  -Log(IC50) M, Tyrosine-protein phosphatase non-receptor type 1: Tyrosine-protein phosphatase non-receptor type 1 -Log(IC50) M~5.46~-Log(IC50) M~0.7284~Target
[3]
  Efficacy: -27.436
[3]; Zika virus, Vero
  AC50: 1.37e-05 M
[3]; Zika virus, Vero, 48 h
  IC50: 13.7 µM
[3]; [13]
  AC50: 1.37e-05 M
In vitro [8]
  CC50: > 30 µM
[4]; Zika virus, Vero, 48 h
  IC50: 0.001 µM
[5]
  CC-v2 (curve class of the dose response curve): -1.2
  Efficacy (difference between neutral response and maximum compound response): -57.341
  Max Resp (difference between neutral response and response at highest compound concentration): -100.305
[5]; Zika virus, Vero
  AC50: 4.99e-06 M
[5]; [13]
  AC50: 4.99e-06 M
In vitro [6]; Vero cells
  CC50 at 48 h: > 50 µM

## 5-methylcytidine [NCGC00484060-01, reference compound]
[1]
  IC50: 18.5 µM
[9]
  DENV active Yes/No: No
WNV (Kern515/WN02)
  SI value WHV (CC50/EC50): 1.8
  Selectivity Index WHV (CC50/EC50): 2
  WHV active Yes/No: No
Vero cells
  CC50: > 50 µM
[10]
  CC50: 19.2 µM
[3]
  CC-v2 (curve class classification of the dose response curve): -1.2
  Efficacy: -42.621
  Log AC50 (M): -4.8362 M
  Max Resp: -39.681
  IC50: 14.6 µM
[3]; read-out: AC50
  AC50: 1.46e-05 M
HepG2 cells
  CC50: > 30 µM
ZIKV
  SI value ZIKV (CC50/EC50): 28
  Selectivity Index ZIKV (CC50/EC50): 28
  ZIKV active Yes/No: Yes
[4]; ZIKV-infected Vero cells, 48 hr, unit inferred
  IC50: > 48 µM
YFV (YFV 17D)
  SI value YFV (CC50/EC50): 3
  Selectivity Index YFV (CC50/EC50): 3
  YFV active Yes/No: Yes
[11]
  CC-v2 (curve class): -2.2
  Efficacy: -64.821
  Log AC50 (M): -4.4 M
  Max Resp: -51.196
[11]; read-out: AC50
  AC50: 39.8 µM
[11]; read-out: NPC (ZIKV Antiviral Assays), IC50
  IC50: 39.8 µM
[5]
  CC-v2 (curve class of the dose response curve): -1.2
  Efficacy (difference between neutral response and maximum compound response): -45.337
  Log AC50 (M): -5.0741 M
  Max Resp (difference between neutral response and response at highest compound concentration): -100.16
[5]; read-out: AC50
  AC50: 8.43e-06 M

## CC1(C)CC[C@]2(C(=O)O)CC[C@]3(C)C(=CCC4[C@@]5(C)CC[C@H](O[C@H]6O[C@H](C(=O)O)[C@@H](O)[C@H](O[C@@H]7O[C@H](CO)[C@H](O)[C@H](O)[C@H]7O)[C@H]6O)C(C)(C)C5CC[C@]43C)[C@@H]2C1 (some centres unmarked) [NCGC00385211-01, Calenduloside G]
[1]; Zika virus, Vero, 48 h
  IC50: 2.2 µM
[12]
  -Log(IC50) M, Transcription factor AP-1: Transcription factor AP-1 -Log(IC50) M~4.74~-Log(IC50) M~0.8101~Target
[3]
  Efficacy: -58.411
[3]; Zika virus, Vero
  AC50: 1.23e-05 M
[3]; Zika virus, Vero, 48 h
  IC50: 12.3 µM
[3]; [13]
  AC50: 1.23e-05 M
[4]; Zika virus, Vero, 48 h
  IC50: 1.39 µM
[5]
  CC-v2 (curve class of the dose response curve): -1.3
  Efficacy (difference between neutral response and maximum compound response): -66.223
  Max Resp (difference between neutral response and response at highest compound concentration): -100.305
[5]; Zika virus, Vero
  AC50: 3.19e-06 M
[5]; [13]
  AC50: 3.19e-06 M
In vitro [6]
  CC50 at 48 h: > 50 µM
